According to ChEMBL document CHEMBL5385904, “Design, synthesis and biological evaluation of seco-DSP/DCK derivatives reversing P-glycoprotein-mediated paclitaxel resistance in A2780/T cells” (Eur J Med Chem, 2023):
pIC50: −log10 of the molar value. The source made the active and inactive calls. No cut-off for these calls is given here.

What was measured:
[1] = test system: A2780/Taxol; assay: Reversal of multidrug resistance in human A2780/Taxol Cells assessed as reversal fold of paclitaxel IC50 at 10 uM incubated for 48 hrs by MTT assay; format: functional
[2] = Stability in human microsomal fraction preincubated for 10 mins followed by NADPH addition and measured upto 60 mins by LC-MS/MS analysis; format: ADME, microsomes, Microsome; details: time < 70 min, read-out: Stability
[3] = test system: A2780/Taxol; assay: Reversal of multi-drug resistance in human A2780/Taxol cells incubated for 48 hrs by MTT assay; format: functional, cell-based
[4] = test system: A2780/Taxol; assay: Cytotoxicity against human A2780/Taxol cells assessed survival rate at 10 uM incubated for 48 hrs by MTT assay; format: functional
[5] = Stability in water assessed as parent compound remaining measured immediately by LC-MS/MS analysis; format: physicochemical; details: read-out: Stability
[6] = test system: A2780; assay: Reversal of drug-sensitive human A2780 cells at 2.5 to 20 uM incubated for 48 hrs in presence of paclitaxel by MTT assay; format: functional, cell-based; details: dose 2.5-20 µM
[7] = Stability in mouse plasma assessed as parent compound remaining measured immediately by LC-MS/MS analysis; format: ADME, cell-free; details: read-out: Stability
[8] = molecular target: T1, ATP-dependent translocase ABCB1 (Homo sapiens, UniProt P08183); assay: Inhibition of P-gp-mediated rhodamine-123 efflux in human A2780/Taxol cells assessed as increase in fluorescence intensity at 10 uM measured upto 60 mins by flow cytometric analysis; format: cell-based; details: 1 h
[9] = molecular target: T1, ATP-dependent translocase ABCB1; assay: Inhibition of P-gp in human A2780/Taxol cells assessed as paclitaxel accumulation in cells by measuring increase in fluorescence intensity at 2.5 to 20 uM incubated for 8 hrs; format: cell-based; details: dose 2.5-20 µM
[10] = test system: A2780; assay: Cytotoxicity against human A2780 cells assessed as reduction in cell viability at 10 to 20 uM incubated for 48 hrs by MTT assay; format: functional, cell-based; details: dose 10-20 µM
[11] = Stability in water assessed as parent compound remaining measured at 30 mins by LC-MS/MS analysis; format: physicochemical; details: read-out: Stability
[12] = molecular target: T1, ATP-dependent translocase ABCB1; assay: Inhibition of P-gp in human A2780/Taxol cells assessed as paclitaxel accumulation in cells by measuring increase in fluorescence intensity at 5 to 20 uM incubated for 8 hrs; format: cell-based; details: dose 5-20 µM
[13] = molecular target: T1, ATP-dependent translocase ABCB1; assay: Inhibition of P-gp in human A2780/Taxol cells assessed as paclitaxel accumulation in cells by measuring increase in fluorescence intensity at 2.5 to 10 uM incubated for 8 hrs; format: cell-based; details: dose 2.5-10 µM
[14] = molecular target: T2, hERG (KCNH2) (Homo sapiens, UniProt Q12809); assay: Inhibition of hERG at 40 uM by patch clamp assay relative to control; format: toxicity
[15] = test system: A2780/Taxol; assay: Reversal of multi-drug resistance in human A2780/Taxol cells at 5 to 20 uM incubated for 48 hrs by MTT assay; format: functional, cell-based; details: dose 5-20 µM
[16] = molecular target: Voltage-gated inwardly rectifying potassium channel KCNH2 (Homo sapiens, UniProt Q12809); assay: Inhibition of hERG by patch clamp assay; format: toxicity
[17] = Stability in mouse plasma assessed as parent compound remaining measured at 30 mins by LC-MS/MS analysis; format: ADME, cell-free; details: read-out: Stability
[18] = molecular target: T1, ATP-dependent translocase ABCB1; assay: Inhibition of P-gp-mediated rhodamine-123 efflux in human A2780/Taxol cells assessed as increase in fluorescence intensity at 10 uM by flow cytometric analysis; format: cell-based; details: 1 h, TDE = time-dependent effect, time < 60 min
[19] = test system: A2780/Taxol; assay: Effect on p-gp expression in human A2780/Taxol cells at 5 to 20 uM by Western blot analysis; format: functional, cell-based; details: dose 5-20 µM
[20] = molecular target: T1, ATP-dependent translocase ABCB1; assay: Inhibition of P-gp in human A2780/Taxol cells assessed as paclitaxel accumulation in cells by measuring increase in fluorescence intensity incubated for 8 hrs; format: cell-based; details: at 2.5 to 20 µM, dose 2.5-20 µM
[21] = test system: A2780/Taxol; assay: Reversal of multi-drug resistance in human A2780/Taxol cells at 10 to 20 uM incubated for 48 hrs by MTT assay; format: functional, cell-based; details: dose 10-20 µM
[22] = molecular target: T2, hERG (KCNH2); assay: Inhibition of hERG at 3 uM by patch clamp assay relative to control; format: toxicity

T1 sequence (P08183 whole entry): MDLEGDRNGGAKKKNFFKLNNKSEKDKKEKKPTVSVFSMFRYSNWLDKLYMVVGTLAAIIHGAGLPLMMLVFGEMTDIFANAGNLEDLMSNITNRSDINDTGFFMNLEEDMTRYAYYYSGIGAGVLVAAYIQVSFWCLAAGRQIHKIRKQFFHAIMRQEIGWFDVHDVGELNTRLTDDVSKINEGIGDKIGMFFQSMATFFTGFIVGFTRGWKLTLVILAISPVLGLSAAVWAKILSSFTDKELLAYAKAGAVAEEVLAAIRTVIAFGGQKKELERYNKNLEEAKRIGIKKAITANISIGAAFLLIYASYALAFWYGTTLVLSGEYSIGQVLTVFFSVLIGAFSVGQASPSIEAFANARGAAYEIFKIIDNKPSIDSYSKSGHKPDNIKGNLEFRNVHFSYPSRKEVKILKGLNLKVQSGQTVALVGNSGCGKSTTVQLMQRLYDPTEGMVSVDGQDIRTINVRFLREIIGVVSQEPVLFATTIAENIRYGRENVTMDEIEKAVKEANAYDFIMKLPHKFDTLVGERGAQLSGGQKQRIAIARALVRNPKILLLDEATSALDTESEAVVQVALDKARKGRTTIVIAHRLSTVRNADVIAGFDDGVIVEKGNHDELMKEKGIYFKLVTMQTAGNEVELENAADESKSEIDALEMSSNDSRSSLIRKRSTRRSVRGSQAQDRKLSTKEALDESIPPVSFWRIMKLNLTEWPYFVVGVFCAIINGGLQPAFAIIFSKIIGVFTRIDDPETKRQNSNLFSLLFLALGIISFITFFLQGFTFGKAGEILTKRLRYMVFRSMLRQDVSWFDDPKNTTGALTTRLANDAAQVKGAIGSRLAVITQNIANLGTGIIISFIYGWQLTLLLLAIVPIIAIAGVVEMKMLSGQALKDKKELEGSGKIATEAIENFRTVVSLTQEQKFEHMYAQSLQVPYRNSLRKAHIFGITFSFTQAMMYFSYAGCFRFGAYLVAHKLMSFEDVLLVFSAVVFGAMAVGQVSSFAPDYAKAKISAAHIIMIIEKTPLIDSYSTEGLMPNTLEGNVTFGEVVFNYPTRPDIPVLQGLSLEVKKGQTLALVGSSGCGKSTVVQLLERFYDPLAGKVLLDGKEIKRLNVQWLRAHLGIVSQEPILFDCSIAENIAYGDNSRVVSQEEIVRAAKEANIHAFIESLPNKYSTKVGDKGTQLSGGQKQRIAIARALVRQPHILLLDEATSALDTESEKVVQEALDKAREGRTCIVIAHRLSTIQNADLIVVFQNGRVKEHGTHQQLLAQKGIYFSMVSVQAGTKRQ
T2 sequence (Q12809 whole entry): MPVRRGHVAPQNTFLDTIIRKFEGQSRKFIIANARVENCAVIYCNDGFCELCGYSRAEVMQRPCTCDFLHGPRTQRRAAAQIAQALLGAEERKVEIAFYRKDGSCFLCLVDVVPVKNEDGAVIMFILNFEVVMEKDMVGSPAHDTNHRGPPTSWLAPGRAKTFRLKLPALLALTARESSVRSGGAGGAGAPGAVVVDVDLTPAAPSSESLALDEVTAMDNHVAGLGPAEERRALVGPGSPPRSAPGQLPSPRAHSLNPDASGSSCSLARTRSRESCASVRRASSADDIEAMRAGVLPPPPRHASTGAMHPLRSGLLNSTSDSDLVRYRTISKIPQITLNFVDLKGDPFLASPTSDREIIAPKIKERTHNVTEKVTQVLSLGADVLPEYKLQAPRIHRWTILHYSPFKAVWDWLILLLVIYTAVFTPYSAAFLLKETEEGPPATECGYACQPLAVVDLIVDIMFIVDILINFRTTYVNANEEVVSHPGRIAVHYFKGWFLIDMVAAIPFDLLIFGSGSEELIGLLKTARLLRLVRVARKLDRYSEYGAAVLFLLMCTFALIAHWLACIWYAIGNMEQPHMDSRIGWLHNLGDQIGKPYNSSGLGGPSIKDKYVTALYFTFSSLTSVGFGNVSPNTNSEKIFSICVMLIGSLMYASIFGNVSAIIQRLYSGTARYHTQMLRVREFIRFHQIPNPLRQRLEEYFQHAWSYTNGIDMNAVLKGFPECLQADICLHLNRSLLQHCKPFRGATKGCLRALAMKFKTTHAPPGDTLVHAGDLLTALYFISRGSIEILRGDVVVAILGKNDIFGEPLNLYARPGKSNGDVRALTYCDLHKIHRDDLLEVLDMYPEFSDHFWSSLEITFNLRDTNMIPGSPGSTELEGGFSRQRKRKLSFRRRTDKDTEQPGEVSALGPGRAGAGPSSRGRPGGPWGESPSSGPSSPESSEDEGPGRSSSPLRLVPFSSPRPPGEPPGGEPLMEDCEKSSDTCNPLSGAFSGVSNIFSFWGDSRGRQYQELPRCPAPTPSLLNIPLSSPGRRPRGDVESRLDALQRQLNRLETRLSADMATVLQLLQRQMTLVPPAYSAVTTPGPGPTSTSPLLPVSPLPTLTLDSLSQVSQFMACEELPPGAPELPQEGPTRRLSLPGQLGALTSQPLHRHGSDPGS
Sequence of Voltage-gated inwardly rectifying potassium channel KCNH2 (Q12809 whole entry): as above

remaining at 1 h [2] | pIC50 [3] | Compound | fold change (FC) [1] | Cell survival rate [4] | Activity [6] | Activity [10] | further results
0.877% | 8.00 | COc1cc(CC(=O)OCc2c(OC(C)C)ccc3c(C)c(Cc4ccccc4)c(=O)oc23)cc(OC)c1OC | 425 | 81% | Active | Active | remaining at 0 min [5]: 100%; remaining at 0 min [7]: 100%; inhibition (INH) [8]: Active; inhibition (INH) [9]: Active; remaining at 0.5 h [11]: 89.1%; inhibition (INH) [12]: Active; inhibition (INH) [13]: Active; Activity ([3]; dose 2.5-20 µM): Dose-Dependent Effect; inhibition at 40 µM [14]: 19%; Activity [15]: Active; pIC50 [16]: < 4.40; remaining at 0.5 h [17]: 0.72%; inhibition (INH) [18]: Tde; Activity [19]: Active; inhibition (INH) [20]: Dose-Dependent Effect
11.8% | 7.54 | CCOc1ccc2c(=O)cc(CC)oc2c1CNC(=O)/C=C/c1ccc(OC)cc1 | 153 | 91% | – | – | –
– | 7.07 | Cc1c(Cc2ccccc2)c(=O)oc2c(COC(=O)c3ccc(F)cc3)c(OC(C)C)ccc12 | 51 | 82% | – | – | –
– | 6.53 | Cc1c(Cc2ccc(F)cc2)c(=O)oc2c(COC(=O)/C=C/c3ccccc3)c(OC(C)C)ccc12 | 15 | 90% | – | – | –

Further lines, the compound ahead of its results:

Compound | remaining at 1 h [2] | pIC50 [3] | fold change (FC) [1] | Cell survival rate [4] | Activity [6] | Activity [10] | further results
CCc1cc(=O)c2ccc(OC(C)C)c(CNC(=O)/C=C/c3ccc(OC)cc3)c2o1 | 29.4% | 7.51 | 142 | 79% | – | – | –
COc1cc2c(cc1OC)CN(CCc1ccc(NC(=O)c3cc(OC)c(OC)cc3NC(=O)c3cnc4ccccc4c3)cc1)CC2 [TARIQUIDAR] | – | – | – | – | Active | Active | Activity [21]: Active; inhibition (INH) [12]: Active
CCOc1ccc2c(C)cc(=O)oc2c1CNC(=O)/C=C/c1ccc(OC)cc1 | 44.3% | 7.54 | 150 | 96% | – | – | inhibition at 40 µM [14]: 32.5%; pIC50 [16]: < 4.40
COc1cc(N)c(Cl)cc1C(=O)NC1CCN(CCCOc2ccc(F)cc2)CC1OC (stereo not drawn) [CISAPRIDE] | – | – | – | – | – | – | inhibition at 3 µM [22]: 98%
COc1ccc(CCN(C)CCCC(C#N)(c2ccc(OC)c(OC)c2)C(C)C)cc1OC (stereo not drawn) [VERAPAMIL] | – | – | – | 81% | Active | Active | Activity [21]: Active
COc1cc(CC(=O)OCc2c(OC(C)C)ccc3c(C)c(Cc4ccccc4F)c(=O)oc23)cc(OC)c1OC | – | 7.14 | 60 | 98% | – | – | –
